One data set deals with JAK1 (Homo sapiens (Human), UniProt P23458). Description: Biochemical JAK kinase assay (LanthaScreen), JAK1. The protocol:
(§1) A panel of four LanthaScreen JAK biochemical assays (JAK1, 2, 3 and Tyk2) were carried in a common kinase reaction buffer (50 mM HEPES, pH 7.5, 0.01% Brij-35, 10 mM MgCl2, and 1 mM EGTA). Recombinant GST-tagged JAK enzymes and a GFP-tagged STAT1 peptide substrate were obtained from Life Technologies.
(§2) Serially diluted compounds were pre-incubated with each of the four JAK enzymes and the substrate in white 384-well microplates (Corning) at ambient temperature for 1 h. ATP was subsequently added to initiate the kinase reactions in 10 μL total volume, with 1% DMSO. […] The plates were allowed to incubate at ambient temperature for 1 h before being read on the EnVision reader (Perkin Elmer).
(§3) For dose-response analysis, percent inhibition data were plotted vs. compound concentrations, and IC50 values were determined from a 4-parameter robust fit model with the Prism software (GraphPad Software). Results were expressed as pIC50 (negative logarithm of IC50) and subsequently converted to pKi (negative logarithm of dissociation constant, Ki) using the Cheng-Prusoff equation.

Another data set has as its target JAK3 (Homo sapiens (Human), UniProt P52333). Description: Biochemical JAK kinase assay (LanthaScreen), JAK3. The protocol: as §1, §2, §3
A further data set deals with Tyk2 (Homo sapiens (Human), UniProt P29597). Kind of data set: Biochemical JAK kinase assay (LanthaScreen), Tyk2. The protocol: as §1, §2, §3
Tyk2, sequence (P29597 whole entry): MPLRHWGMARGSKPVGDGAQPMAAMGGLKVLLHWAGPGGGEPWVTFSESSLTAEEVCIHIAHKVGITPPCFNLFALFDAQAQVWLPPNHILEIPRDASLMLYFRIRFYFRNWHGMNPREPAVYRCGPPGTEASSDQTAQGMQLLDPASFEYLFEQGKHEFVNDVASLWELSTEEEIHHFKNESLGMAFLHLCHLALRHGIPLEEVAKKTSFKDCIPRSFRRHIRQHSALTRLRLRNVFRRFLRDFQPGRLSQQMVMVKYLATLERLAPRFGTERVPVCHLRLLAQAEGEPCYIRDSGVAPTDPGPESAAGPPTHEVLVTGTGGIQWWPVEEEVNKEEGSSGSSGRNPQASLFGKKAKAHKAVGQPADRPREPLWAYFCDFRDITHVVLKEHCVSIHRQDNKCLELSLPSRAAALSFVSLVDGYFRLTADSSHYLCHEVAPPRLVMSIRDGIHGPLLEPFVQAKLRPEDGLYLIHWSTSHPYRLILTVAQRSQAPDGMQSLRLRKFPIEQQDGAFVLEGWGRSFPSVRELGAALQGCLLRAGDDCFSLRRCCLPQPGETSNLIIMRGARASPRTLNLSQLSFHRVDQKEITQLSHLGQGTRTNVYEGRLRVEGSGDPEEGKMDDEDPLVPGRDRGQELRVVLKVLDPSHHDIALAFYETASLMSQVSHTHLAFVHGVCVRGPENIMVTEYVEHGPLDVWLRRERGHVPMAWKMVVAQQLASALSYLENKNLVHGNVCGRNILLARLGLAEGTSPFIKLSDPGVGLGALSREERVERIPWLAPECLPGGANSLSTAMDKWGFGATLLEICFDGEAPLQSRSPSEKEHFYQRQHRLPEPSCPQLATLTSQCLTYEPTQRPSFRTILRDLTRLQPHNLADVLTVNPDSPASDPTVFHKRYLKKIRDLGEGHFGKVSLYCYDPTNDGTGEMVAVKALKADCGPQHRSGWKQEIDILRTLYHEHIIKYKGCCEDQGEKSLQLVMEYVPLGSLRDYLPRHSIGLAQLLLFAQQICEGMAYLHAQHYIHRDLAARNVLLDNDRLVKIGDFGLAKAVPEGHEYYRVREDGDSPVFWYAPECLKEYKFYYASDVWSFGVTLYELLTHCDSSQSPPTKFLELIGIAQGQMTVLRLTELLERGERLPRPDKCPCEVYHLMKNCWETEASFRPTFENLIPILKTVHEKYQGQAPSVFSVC
Data set [1] concerns IL-13 induced STAT6 phosphorylation in BEAS-2B human lung epithelial cells. Description: Cellular JAKI potency assay (AlphaScreen, BEAS-2B). It is filed as cell-based. To be noted: BEAS-2B cells. The protocol: The AlphaScreen JAKI cellular potency assay was carried out by measuring interleukin-13 (IL-13, R&D Systems) induced STAT6 phosphorylation in BEAS-2B human lung epithelial cells (ATCC). The anti-STAT6 antibody (Cell Signaling Technologies) was conjugated to AlphaScreen acceptor beads (Perkin Elmer), while the anti-pSTAT6 (pTyr641) antibody (Cell Signaling Technologies) was biotinylated using EZ-Link Sulfo-NHS-Biotin (Thermo Scientific).
BEAS-2B cells were grown at 37° C. in a 5% CO2 humidified incubator in 50% DMEM/50% F-12 medium (Life Technologies) supplemented with 10% FBS (Hyclone), 100 U/mL penicillin, 100 μg/mL streptomycin (Life Technologies), and 2 mM GlutaMAX (Life Technologies). On day 1 of the assay, cells were seeded at a 7,500 cells/well density in white poly-D-lysine-coated 384-well plates (Corning) with 25 μL medium, and were allowed to adhere overnight in the incubator. On day 2 of the assay, the medium was removed and replaced with 12 μL of assay buffer (Hank's Balanced Salt Solution/HBSS, 25 mM HEPES, and 1 mg/ml bovine serum albumin/BSA) containing dose-responses of test compounds. Compounds were serially diluted in DMSO and then diluted another 1000-fold in media to bring the final DMSO concentration to 0.1%. Cells were incubated with test compounds at 37° C. for 1 h, and followed by the addition of 12 μl of pre-warmed IL-13 (80 ng/mL in assay buffer) for stimulation. After incubating at 37° C. for 30 min, the assay buffer (containing compound and IL-13) was removed, and 10 μL of cell lysis buffer (25 mM HEPES, 0.1% SDS, 1% NP-40, 5 mM MgCl2, 1.3 mM EDTA, 1 mM EGTA, and supplement with Complete Ultra mini protease inhibitors and PhosSTOP from Roche Diagnostics). The plates were shaken at ambient temperature for 30 min before the addition of detection reagents. A mixture of biotin-anti-pSTAT6 and anti-STAT6 conjugated acceptor beads was added first and incubated at ambient temperature for 2 h, followed by the addition of streptavidin conjugated donor beads (Perkin Elmer). After a minimum of 2 h incubation, the assay plates were read on the EnVision plate reader. AlphaScreen luminescence signals were recorded and utilized to calculate the percent inhibition values based on DMSO and background controls.
For dose-response analysis, percent inhibition data were plotted vs. compound concentrations, and IC50 values were determined from a 4-parameter robust fit model with the Prism software. Results may also be expressed as the negative logarithm of the IC50 value, pIC50.
Test compounds having a lower IC50 value or higher pIC50 value in this assay show greater inhibition of IL-13 induced STAT6 phosphorylation.

Data set [2] in a line: Pharmacokinetics in plasma and lung in mouse. It is filed as in vivo. To be noted: oral aspiration, ratio of lung exposure to plasma exposure.
In data set [3] the test system is IL-13 induced pSTAT6 in lung tissue. Kind of data set: Murine model of IL-13 induced pSTAT6 induction in lung tissue. The data set is classed as in vivo. The note with it: mouse lung, oral aspiration 1 mg/mL 50 μL, IL-13 challenge 4 h post dose, pSTAT6 at 5 hours. The procedure: IL-13 is an important cytokine underlying the pathophysiology of asthma (Kudlacz et al. Eur. J. Pharmacol, 2008, 582, 154-161). IL-13 binds to cell surface receptors activating members of the Janus family of kinases (JAK) which then phosphorylate STAT6 and subsequently activates further transcription pathways. In the described model, a dose of IL-13 was delivered locally into the lungs of mice to induce the phosphorylation of STAT6 (pSTAT6) which is then measured as the endpoint.
Adult balb/c mice from Harlan were used in the assay. On the day of study, animals were lightly anesthetized with isoflurane and administered either vehicle or test compound (1 mg/mL, 50 μL total volume over several breaths) via oral aspiration. Animals were placed in lateral recumbency post dose and monitored for full recovery from anesthesia before being returned to their home cage. Four hours later, animals were once again briefly anesthetized and challenged with either vehicle or IL-13 (0.03 μg total dose delivered, 50 μL total volume) via oral aspiration before being monitored for recovery from anesthesia and returned to their home cage. One hour after vehicle or IL-13 administration, lungs were collected for both pSTAT6 detection using an anti-pSTAT6 ELISA (rabbit mAb capture/coating antibody; mouse mAb detection/report antibody: anti-pSTAT6-pY641; secondary antibody: anti-mouse IgG-HRP) and analyzed for total drug concentration as described above in Assay 3.
Selected compounds of the invention were tested in the assay. Activity in the model is evidenced by a decrease in the level of pSTAT6 present in the lungs of treated animals at 5 hours compared to the vehicle treated, IL-13 challenged control animals. The difference between the control animals which were vehicle-treated, IL-13 challenged and the control animals which were vehicle-treated, vehicle challenged dictated the 0% and 100% inhibitory effect, respectively, in any given experiment.

JAK3, sequence (P52333 whole entry): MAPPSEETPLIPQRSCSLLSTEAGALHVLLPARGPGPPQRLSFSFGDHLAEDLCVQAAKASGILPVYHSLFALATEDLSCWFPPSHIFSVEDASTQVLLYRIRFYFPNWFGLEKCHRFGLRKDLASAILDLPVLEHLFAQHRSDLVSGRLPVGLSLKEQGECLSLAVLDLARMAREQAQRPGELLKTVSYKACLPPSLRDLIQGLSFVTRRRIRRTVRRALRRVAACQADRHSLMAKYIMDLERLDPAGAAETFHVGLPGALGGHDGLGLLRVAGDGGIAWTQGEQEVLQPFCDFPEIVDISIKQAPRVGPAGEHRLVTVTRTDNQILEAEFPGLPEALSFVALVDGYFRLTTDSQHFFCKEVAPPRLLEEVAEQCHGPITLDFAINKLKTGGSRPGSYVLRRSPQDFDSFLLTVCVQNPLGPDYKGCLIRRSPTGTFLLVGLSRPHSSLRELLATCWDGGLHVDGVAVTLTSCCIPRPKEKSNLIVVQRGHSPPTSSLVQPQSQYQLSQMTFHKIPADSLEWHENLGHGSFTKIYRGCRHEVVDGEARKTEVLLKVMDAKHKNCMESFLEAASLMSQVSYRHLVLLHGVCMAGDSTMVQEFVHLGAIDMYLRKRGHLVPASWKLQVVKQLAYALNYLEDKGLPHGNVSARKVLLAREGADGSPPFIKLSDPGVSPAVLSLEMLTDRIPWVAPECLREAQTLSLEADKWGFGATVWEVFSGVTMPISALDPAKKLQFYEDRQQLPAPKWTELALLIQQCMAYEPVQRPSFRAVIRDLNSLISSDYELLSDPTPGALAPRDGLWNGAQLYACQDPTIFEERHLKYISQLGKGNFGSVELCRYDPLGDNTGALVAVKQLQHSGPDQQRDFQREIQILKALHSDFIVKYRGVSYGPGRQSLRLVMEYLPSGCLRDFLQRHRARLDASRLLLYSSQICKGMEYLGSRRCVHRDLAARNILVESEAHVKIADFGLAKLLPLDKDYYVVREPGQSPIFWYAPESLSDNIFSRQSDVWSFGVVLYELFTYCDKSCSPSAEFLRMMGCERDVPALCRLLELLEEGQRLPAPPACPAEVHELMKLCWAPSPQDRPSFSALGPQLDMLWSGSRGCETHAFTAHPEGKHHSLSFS
JAK1, sequence (P23458 whole entry): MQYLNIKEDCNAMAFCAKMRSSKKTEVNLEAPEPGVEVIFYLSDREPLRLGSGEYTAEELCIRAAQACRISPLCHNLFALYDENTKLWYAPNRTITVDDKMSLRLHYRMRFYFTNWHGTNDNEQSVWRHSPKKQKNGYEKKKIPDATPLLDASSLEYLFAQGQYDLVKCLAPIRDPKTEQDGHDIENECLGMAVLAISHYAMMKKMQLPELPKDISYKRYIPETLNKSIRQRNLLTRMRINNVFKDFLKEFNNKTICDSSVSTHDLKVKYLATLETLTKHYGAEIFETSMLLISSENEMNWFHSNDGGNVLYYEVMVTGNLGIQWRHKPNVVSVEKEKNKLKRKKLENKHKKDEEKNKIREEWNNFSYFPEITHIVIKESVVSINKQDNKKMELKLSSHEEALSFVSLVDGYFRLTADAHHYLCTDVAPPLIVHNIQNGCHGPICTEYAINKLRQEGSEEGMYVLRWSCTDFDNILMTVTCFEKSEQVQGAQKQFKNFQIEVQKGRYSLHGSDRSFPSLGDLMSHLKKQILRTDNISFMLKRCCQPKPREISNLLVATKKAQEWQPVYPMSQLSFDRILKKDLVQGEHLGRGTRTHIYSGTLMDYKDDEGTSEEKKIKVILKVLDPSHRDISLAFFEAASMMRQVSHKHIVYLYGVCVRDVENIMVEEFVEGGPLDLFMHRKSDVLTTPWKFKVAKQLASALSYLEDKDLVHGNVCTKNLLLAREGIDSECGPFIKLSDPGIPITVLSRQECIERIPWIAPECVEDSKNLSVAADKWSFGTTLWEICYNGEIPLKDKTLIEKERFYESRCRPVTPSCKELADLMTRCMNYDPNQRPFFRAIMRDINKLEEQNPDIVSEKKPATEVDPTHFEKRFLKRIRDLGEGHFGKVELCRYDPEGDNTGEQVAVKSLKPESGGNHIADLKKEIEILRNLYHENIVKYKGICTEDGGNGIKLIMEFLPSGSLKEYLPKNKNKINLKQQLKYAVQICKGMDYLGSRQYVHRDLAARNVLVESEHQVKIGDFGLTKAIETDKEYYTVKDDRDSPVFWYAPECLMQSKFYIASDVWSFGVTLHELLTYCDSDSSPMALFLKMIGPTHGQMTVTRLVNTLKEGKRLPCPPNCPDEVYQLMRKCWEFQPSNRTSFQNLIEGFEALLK

A word on the Ki: it is a dissociation constant, usually derived from enzyme kinetics or from competition with a known ligand. As a reminder, the IC50 is the point on the concentration scale where inhibition reaches its midpoint. Lower therefore signals inhibition by little substance. As for `CCCN1Cc2[nH]c(-c3n[nH]c4cc(-c5cc(F)c(O)cc5CC)ccc34)nc2C[C@H]1C(=O)N1C[C@@H]2C[C@H]1CN2C` [Example 1, ((S)-2-(6-(2-ethyl-5-fluoro-4-hydroxyphenyl)-1H-indazol-3-yl)-5-propyl-4,5,6,7-tetrahydro-3H-imidazo[4,5-c]pyridin-6-yl)((1S,4S)-5-methyl-2,5-diazabicyclo-[2.2.1]heptan-2-yl)methanone], the values for the Ki at JAK1, on JAK3 and at Tyk2 were 0.05 nM, 0.08 nM and 0.25 nM, respectively. Besides, 5 nM corresponded to half-maximal inhibition in data set [1] (IC50). In addition, the “Lung to Plasma ratio Assay 3” value in data set [2] was “A (A denotes a ratio 100-200)”. Besides, the “pSTAT6 inhibition Assay 4” value in data set [3] was “A (A represents between 60% and 80% inhibition)”.

As for `CCc1cc(O)c(F)cc1-c1ccc2c(-c3nc4c([nH]3)CN(CC)[C@@H](C(=O)N3CCN(C(C)(C)C)CC3)C4)n[nH]c2c1` [Example 1-37], the Ki on JAK1 amounted to 0.1 nM; at JAK3, 0.5 nM; at Tyk2, 1.26 nM. In addition, half-maximal inhibition in data set [1] (IC50) required 5.9 nM. Also, the “pSTAT6 inhibition Assay 4” value in data set [3] is “C (C represents between 25% and 40% inhibition)”.

Turning to `CCc1cc(O)c(F)cc1-c1ccc2c(-c3nc4c([nH]3)CN(C(C)C)[C@H](C(=O)N3CC[C@H](N(C)C)C3)C4)n[nH]c2c1` [Example 3], the Ki on JAK1 turned out to be 0.06 nM; on JAK3, 0.1 nM; at Tyk2 it was 0.4 nM. Inhibition in data set [1] was half-maximal at 5.9 nM (IC50). Moreover, the “Lung to Plasma ratio Assay 3” value in data set [2] was “B (B denotes a ratio between 50 and 100)”. The “pSTAT6 inhibition Assay 4” value in data set [3] is “B (B represents between 40% and 60% inhibition)”.

The record behind these values is patent US10208040B2, “Fused imidazo-piperidine JAK inhibitors” (THERAVANCE BIOPHARMA R&D IP, LLC, priority 2017, dated 2019).
